The source of these data is patent publication US10214531B2 (Institute for Drug Discovery, LLC, priority 2013, dated 2019).

Structures can show the parent of a compound that is named as a salt.

recombinant human AMCase, sequence (Q9BZP6 22-476): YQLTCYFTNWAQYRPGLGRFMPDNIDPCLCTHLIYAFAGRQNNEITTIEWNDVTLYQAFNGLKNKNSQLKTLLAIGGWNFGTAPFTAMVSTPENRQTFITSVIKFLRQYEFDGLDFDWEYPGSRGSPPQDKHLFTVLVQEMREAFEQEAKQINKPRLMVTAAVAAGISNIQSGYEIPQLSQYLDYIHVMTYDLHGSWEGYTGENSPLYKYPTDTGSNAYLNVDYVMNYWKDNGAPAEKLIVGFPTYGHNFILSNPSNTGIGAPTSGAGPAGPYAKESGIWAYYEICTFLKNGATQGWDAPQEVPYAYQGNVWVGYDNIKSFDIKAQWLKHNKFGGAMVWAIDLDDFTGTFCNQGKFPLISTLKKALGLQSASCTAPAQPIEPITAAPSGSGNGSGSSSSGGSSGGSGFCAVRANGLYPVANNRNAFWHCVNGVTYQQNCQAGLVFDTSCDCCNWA

The assay concerns the target recombinant human AMCase (Homo sapiens, UniProt Q9BZP6). Description: Human AMCase Activity Assay. Conditions: recombinant hAMCase, 4-methylumbelliferyl chitobioside substrate, citrate buffer pH 5.2, 37° C., 60 minutes; read-out: Activity (IC50 value key). In kind it is biochemical. As for the experimental part:
Human AMCase Activity Assay
The assay was run in the 96-well plate format, each reaction in the total volume of 100 μl. 4-Methylumbelliferyl B-D-N,N′ diacetylchitobioside hydrate was used as a substrate for the enzyme. Upon hydrolysis by AMCase, the substrate releases 4-methylumbelliferyl (4MU), when ionized in basic pH, emits fluorescence of 460 nm.
Briefly, 40 μl of a substrate was added to each well, followed by 10 μl of compound dilution and 50 μl of hAMCase recombinant enzyme solution. The reaction was carried out in citrate buffer, pH 5.2, in the dark, at 37° C. for 60 minutes with shaking.
Consider `Nc1n[nH]c(N2CCC(c3nc(-c4ccc5c(c4)OCO5)no3)CC2)n1` [Example 41, 5-(4-(3-(benzo[d][1,3]dioxol-5-yl)-1,2,4-oxadiazol-5-yl)piperidin-1-yl)-1H-1,2,4-triazol-3-amine], for which the IC50 is above 100 µM.
The result for `CS(=O)(=O)c1ccc(-c2noc(C3CCN(c4nc(N)n[nH]4)CC3)n2)cc1` [Example 42, 5-(4-(3-(4-(methylsulfonyl)phenyl)-1,2,4-oxadiazol-5-yl)piperidin-1-yl)-1H-1,2,4-triazol-3-amine] reads above 100 µM; that for `Nc1n[nH]c(N2CCC(c3nnc(-c4ccc(F)cc4)o3)CC2)n1` [Example 43, 5-(4-(5-(4-fluorophenyl)-1,3,4-oxadiazol-2-yl)piperidin-1-yl)-1H-1,2,4-triazol-3-amine], above 100 µM.
The result for `CC(Oc1ccccc1F)C(=O)N1CCN(c2nc(N)n[nH]2)CC1` (stereo not drawn) [Example 44, 1-(4-(3-amino-1H-1,2,4-triazol-5-yl)piperazin-1-yl)-2-(2-fluorophenoxy)propan-1-one] reads above 100 µM; that for `Cc1ccc(OC(C)C(=O)N2CCN(c3nc(N)n[nH]3)CC2)c(Cl)c1` (stereo not drawn) [Example 45, 1-(4-(3-amino-1H-1,2,4-triazol-5-yl)piperazin-1-yl)-2-(2-chloro-4-methylphenoxy)propan-1-one], above 100 µM; that for `Nc1n[nH]c(N2CCN(C(=O)OCc3ccccc3)CC2)n1` [Example 47, benzyl 4-(3-amino-1H-1,2,4-triazol-5-yl)piperazine-1-carboxylate], above 100 µM.
Consider `Nc1n[nH]c(N2CCN(C(=O)c3cc4ccccc4o3)CC2)n1` [Example 48, (4-(3-amino-1H-1,2,4-triazol-5-yl)piperazin-1-yl)(benzofuran-2-yl)methanone], for which the half-inhibitory concentration (IC50) was above 100 µM.
The value for `Nc1n[nH]c(N2CCC(C(=O)NCc3ccc(F)cc3)CC2)n1` [Example 49, 1-(3-amino-1H-1,2,4-triazol-5-yl)-N-(4-fluorobenzyl)piperidine-4-carboxamide] was above 100 µM; that for `Nc1n[nH]c(N2CCC(C(=O)NCc3ccc(F)cc3C(F)(F)F)CC2)n1` [Example 50, 1-(3-amino-1H-1,2,4-triazol-5-yl)-N-(4-fluoro-2-(trifluoromethyl)benzyl)piperidine-4-carboxamide] was above 100 µM.
The result for `Nc1n[nH]c(N2CCC(C(=O)NCc3ccccc3F)CC2)n1` [Example 51, 1-(3-amino-1H-1,2,4-triazol-5-yl)-N-(2-fluorobenzyl)piperidine-4-carboxamide] reads above 100 µM; that for `Nc1n[nH]c(N2CCC(C(=O)NCc3ccc(Cl)cc3)CC2)n1` [Example 52, 1-(3-amino-1H-1,2,4-triazol-5-yl)-N-(4-chlorobenzyl)piperidine-4-carboxamide], above 100 µM.
For the compound `Nc1n[nH]c(N2CCC(C(=O)NCc3ccccc3Br)CC2)n1` [Example 53, 1-(3-amino-1H-1,2,4-triazol-5-yl)-N-(2-bromobenzyl)piperidine-4-carboxamide], the IC50 was above 100 µM.
The value for `Nc1n[nH]c(N2CCC(C(=O)NCc3ccc(F)c(C(F)(F)F)c3)CC2)n1` [Example 54, 1-(3-amino-1H-1,2,4-triazol-5-yl)-N-(4-fluoro-3-(trifluoromethyl)benzyl)piperidine-4-carboxamide] was above 100 µM; that for `Nc1n[nH]c(N2CCC(NS(=O)(=O)Cc3cccc(F)c3)CC2)n1` [Example 56, N-(1-(3-amino-1H-1,2,4-triazol-5-yl)piperidin-4-yl)-1-(3-fluorophenyl)methanesulfonamide] was 10 to 100 µM; that for `Nc1n[nH]c(N2CCC(NS(=O)(=O)Cc3ccc(F)cc3)CC2)n1` [Example 57, N-(1-(3-amino-1H-1,2,4-triazol-5-yl)piperidin-4-yl)-1-(4-fluorophenyl)methanesulfonamide] was 10 to 100 µM.
For `Nc1n[nH]c(N2CCC(NS(=O)(=O)Cc3cc(Cl)cc(Cl)c3)CC2)n1` [Example 58, N-(1-(3-amino-1H-1,2,4-triazol-5-yl)piperidin-4-yl)-1-(3,5-dichlorophenyl)methanesulfonamide], the 50% inhibitory concentration (IC50) was 1 to 10 µM.
With `Nc1n[nH]c(N2CCC(NS(=O)(=O)Cc3cccc(Cl)c3)CC2)n1` [Example 59, N-(1-(3-amino-1H-1,2,4-triazol-5-yl)piperidin-4-yl)-1-(3-chlorophenyl)methanesulfonamide], the concentration for half-maximal inhibition (IC50) lay in the range of 1 to 10 µM.
The result for `CCC(CN1CCN(c2nc(N)n[nH]2)CC1)Oc1ccc(Br)cc1` (stereo not drawn) [Example 60, 5-(4-(2-(4-bromophenoxy)butyl)piperazin-1-yl)-1H-1,2,4-triazol-3-amine] reads 10 to 100 µM; that for `C[C@H](CN1CCN(c2nc(N)n[nH]2)CC1)Oc1ccc(Br)cc1` [Example 61, (R)-5-(4-(2-(4-bromophenoxy)propyl)piperazin-1-yl)-1H-1,2,4-triazol-3-amine], 1 to 10 µM.
The result for `C[C@@H](CN1CCN(c2nc(N)n[nH]2)CC1)Oc1ccc(Br)cc1` [Example 62, (S)-5-(4-(2-(4-bromophenoxy)propyl)piperazin-1-yl)-1H-1,2,4-triazol-3-amine] reads 0.1 to 1 µM.
The value for `CCC(CN1CCN(c2nc(N)n[nH]2)CC1)Oc1ccc(Cl)cc1` (stereo not drawn) [Example 63, 5-(4-(2-(4-chlorophenoxy)butyl)piperazin-1-yl)-1H-1,2,4-triazol-3-amine] was 10 to 100 µM; that for `C[C@H](CN1CCN(c2nc(N)n[nH]2)CC1)Oc1ccc(Cl)cc1` [Example 64, (R)-5-(4-(2-(4-chlorophenoxy)propyl)piperazin-1-yl)-1H-1,2,4-triazol-3-amine] was 10 to 100 µM; that for `C[C@@H](CN1CCN(c2nc(N)n[nH]2)CC1)Oc1ccc(Cl)cc1` [Example 65, (S)-5-(4-(2-(4-chlorophenoxy)propyl)piperazin-1-yl)-1H-1,2,4-triazol-3-amine] was 10 to 100 µM.
Take `Nc1n[nH]c(N2CCN(CCCc3ccc(Cl)cc3)C(CO)C2)n1` (stereo not drawn) [Example 66, (4-(3-amino-1H-1,2,4-triazol-5-yl)-1-(3-(4-chlorophenyl)propyl)piperazin-2-yl)methanol]: the concentration for half-maximal inhibition (IC50) lay in the range of 10 to 100 µM.
The value for `Nc1n[nH]c(N2CCC(NC(=O)Nc3ccc(Cl)cc3)CC2)n1` [Example 67, 1-(1-(3-amino-1H-1,2,4-triazol-5-yl)piperidin-4-yl)-3-(4-chlorophenyl)urea] was above 100 µM.
In the case of `Nc1n[nH]c(N2CCC(NC(=O)Nc3ccc(F)c(F)c3)CC2)n1` [Example 68, 1-(1-(3-amino-1H-1,2,4-triazol-5-yl)piperidin-4-yl)-3-(3,4-difluorophenyl)urea], the concentration for half-maximal inhibition (IC50) was above 100 µM.
As to `Nc1n[nH]c(N2CCC(CNC(=O)c3cccc(Br)c3)CC2)n1` [Example 69, N-((1-(3-amino-1H-1,2,4-triazol-5-yl)piperidin-4-yl)methyl)-3-bromo benzamide], the half-maximal inhibitory concentration (IC50) is above 100 µM.
The result for `Nc1n[nH]c(N2CCC(CC(=O)Nc3ccc(Br)cc3)CC2)n1` [Example 70, 2-(1-(3-amino-1H-1,2,4-triazol-5-yl)piperidin-4-yl)-N-(4-bromophenyl)acetamide] reads above 100 µM; that for `Nc1n[nH]c(N2CCC(NC(=O)C(O)c3ccc(Cl)cc3)CC2)n1` (stereo not drawn) [Example 71, N-(1-(3-amino-1H-1,2,4-triazol-5-yl)piperidin-4-yl)-2-(4-chlorophenyl)-2-hydroxyacetamide], above 100 µM; that for `Nc1n[nH]c(N2CCN(C(=O)[C@H](O)Cc3ccc(Cl)cc3)CC2)n1` [Example 72, (R)-1-(4-(3-amino-1H-1,2,4-triazol-5-yl)piperazin-1-yl)-3-(4-chlorophenyl)-2-hydroxypropan-1-one], above 100 µM.
The value for `Nc1n[nH]c(N2CCN(C(=O)C(O)Cc3ccccc3Cl)CC2)n1` (stereo not drawn) [Example 73, 1-(4-(3-amino-1H-1,2,4-triazol-5-yl)piperazin-1-yl)-3-(2-chlorophenyl)-2-hydroxypropan-1-one] was above 100 µM.
Consider `Nc1n[nH]c(N2CCN(C(=O)COc3ccc(Cl)c([N+](=O)[O-])c3)CC2)n1` [Example 74, 1-(4-(3-amino-1H-1,2,4-triazol-5-yl)piperazin-1-yl)-2-(4-chloro-3-nitrophenoxy)ethanone], for which the IC50 is above 100 µM.
The result for `Nc1n[nH]c(N2CCN(C(=O)[C@@H](N)Cc3ccc(Cl)cc3Cl)CC2)n1` [Example 75-1, (S)-2-amino-1-(4-(3-amino-1H-1,2,4-triazol-5-yl)piperazin-1-yl)-3-(2,4-dichlorophenyl)propan-1-one dihydrochloride] reads above 100 µM.
The result for `Nc1n[nH]c(N2CCN(C(=O)[C@@H](N)Cc3ccccc3Cl)CC2)n1` [Example 75-2, (S)-2-amino-1-(4-(3-amino-1H-1,2,4-triazol-5-yl)piperazin-1-yl)-3-(2-chlorophenyl)propan-1-one dihydrochloride] reads above 100 µM; that for `CC(=O)NC(CC(=O)N1CCN(c2nc(N)n[nH]2)CC1)c1ccc(F)cc1` (stereo not drawn) [Example 76, N-(3-(4-(3-amino-1H-1,2,4-triazol-5-yl)piperazin-1-yl)-1-(4-fluorophenyl)-3-oxopropyl)acetamide], above 100 µM; that for `Nc1n[nH]c(N2CCN(CCO)CC2)n1` [Example 77, 2-(4-(3-amino-1H-1,2,4-triazol-5-yl)piperazin-1-yl)ethanol], above 100 µM.
The value for `Nc1n[nH]c(N2CCN(CCOc3ccccc3)CC2)n1` [Example 78, 5-(4-(2-phenoxyethyl)piperazin-1-yl)-1H-1,2,4-triazol-3-amine] was above 100 µM.
Turning to `Nc1n[nH]c(N2CCN(CCOc3ccccc3Cl)CC2)n1` [Example 79, 5-(4-(2-(2-chlorophenoxy)ethyl)piperazin-1-yl)-1H-1,2,4-triazol-3-amine], the IC50 lay in the range of 10 to 100 µM.
As for `Nc1n[nH]c(N2CCN(CCOCc3ccccc3)CC2)n1` [Example 80, 5-(4-(2-(benzyloxy)ethyl)piperazin-1-yl)-1H-1,2,4-triazol-3-amine], the half-inhibitory concentration (IC50) was above 100 µM.
